In brackets after ≈: the same amount, converted by molar mass.
Legend:
Assay in all cases: Minimum inhibitory concentration (MIC) in vitro, β-lactamase inhibitory activity demonstration
Assay type in all cases: cell-based
Proteus mirabilis C889 = conditions: compound alone, no ampicillin
Procedure: (§1) The minimum inhibitory concentrations (MIC) of certain compounds of this invention and of ampicillin, alone or in the presence of compounds of the invention, were determined in vitro for a range of micro-organisms.

Klebsiella aerogenes E70 = conditions: compound alone, no ampicillin, read-out: MIC KA, Compound alone
Procedure: as §1

E. coli JT39 = conditions: Escherichia coli, compound alone, no ampicillin, read-out: MIC EC, Compound alone
Procedure: as §1

[1] = test system: Staphylococcus aureus Russell; conditions: compound alone, no ampicillin, read-out: MIC SAR, Compound alone
Procedure: as §1

| Structure (SMILES) | MIC (Proteus mirabilis C889) [µg/mL] | MIC (Klebsiella aerogenes E70) [µg/mL] | MIC (E. coli JT39) [µg/mL] | MIC [1] [µg/mL] |
| --- | --- | --- | --- | --- |
| C=COC/C=C1\O[C@@H]2CC(=O)N2[C@H]1C(=O)O [Example 10, Lithium 9-0-vinyl-clavulanate] | 62.5 (≈ 278 µM) | 31.2 (≈ 139 µM) | 31.2 (≈ 139 µM) | 15.6 (≈ 69.3 µM) |
| C=COC/C=C1\O[C@@H]2CC(=O)N2[C@H]1C(=O)OC [Example 8, Methyl 9-0-vinylclavulanate] | 250 (≈ 1050 µM) | 500 (≈ 2090 µM) | 500 (≈ 2090 µM) | 125 (≈ 523 µM) |

Reference: patent EP0000804A1, “Process for the preparation of ethers of clavulanic acid” (BEECHAM GROUP PLC, priority 1977, dated 1979)
